Values of other authors as cited in patent US20070027217A1, “Composition and Method for Preventing Secondary Burn Ischemia” (priority 2005, published 2007).
“Also recorded” adds a separate entry of the source.

What was measured:
[1] = tested on: rat comb burn
[2] = tested on: burned hamster model; conditions: intravenous infusion
[3] = tested on: 38% full thickness burn; conditions: burn victim taking ibuprofen for arthritis
[4] = tested on: burns; conditions: in vivo

| SMILES | start of restoration of blood flow within interspaces ([1]; injected immediately after burn trauma) | vascular occlusion / blood flow within the interspaces ([1]; systemic application or injection) | vasodilation response to burn injury [2] | hypermetabolic response during recovery [3] | vascular occlusion and loss of blood flow in burns [4] |
| --- | --- | --- | --- | --- | --- |
| CC(C)Cc1ccc(C(C)C(=O)O)cc1 (centres unmarked) [ibuprofen] | 16 h | preserves blood flow; also recorded: restores vessel patency and blood flow | reduction in the vasodilation response | failed to show the expected hypermetabolic response |  |
| COc1ccc2c(c1)c(CC(=O)O)c(C)n2C(=O)c1ccc(Cl)cc1 [indomethacin] |  |  |  |  | does not prevent vascular occlusion and loss of blood flow |
